Consider 5 molecules from article PMC6680768, “Synthesis and Preclinical Evaluation of Radio-Iodinated GRPR/PSMA Bispecific Heterodimers for the Theranostics Application in Prostate Cancer” (Pharmaceutics, 2019).

Bounds are passed on as bounds.

Series [1] has as its system PSMA. As to conditions: LNCaP xenografts, 1 h pi, p < 0.05.
Procedure: All in vivo experiments were carried out on BALB/c nu/nu mice provided by Scanbur A/S (Sweden). PC-3, LNCaP, and PC-3pip tumor xenografts were established by implanting 5 × 10^6 cells/mouse for PC-3 and PC-3pip xenografts, and 10 × 10^6 cells for LNCaP xenografts. The in vivo experiments were carried out when palpable tumors were observed. Animal weight at the moment of experiment was 20 ± 2 g, 21 ± 3 g, 14.5 ± 0.8 g, and average tumor size was 0.2 ± 0.1 g, 0.05 ± 0.04 g, 0.4 ± 0.1 g for PC-3, LNCaP, and PC-3pip models, respectively.
In vivo specificity for the radiolabeled heterodimers was tested on mice bearing PC-3 or LNCaP xenografts. The mice were injected with 40 pmol (30 KBq) of the radiolabeled heterodimer in 1% bovine serum albumin (BSA) in PBS. For the mice in the blocked group, 7.5 nmol of either unlabeled NOTA-PEG4-RM26 or PSMA-617 was added to the radiolabeled heterodimer in order to block GRPR in PC-3 xenografted mice or PSMA in LNCaP xenografted mice, respectively. Animals were sacrificed by heart punctures exsanguination after pre-injection of Ketalar–Rompun solution (10 mg/mL Ketalar and 1 mg/mL Rompun; 20 μL solution/gram of body weight). The mice were dissected 1 h post-injection (pi) and the organs of interest were collected. The activity uptake in organs was measured.
Series [2] concerns PC-3pip cells (GRPR and PSMA positive). Nature of the series: Cellular retention of activity after interrupted incubation, PC-3pip cells. The format is cell-based. Conditions: 24 h. How it is done:
(§1) The cellular retention of activity after interrupted incubation was carried out on PC-3, LNCaP, and PC-3pip cells. A concentration of 20 nM of each radiolabeled heterodimer was added to the cells and the dishes were incubated at 4 °C for 2 h. The media was aspired, and the cells were further incubated with complete media at 37 °C. At predetermined time points, the media was collected, and the cells were detached with trypsin–EDTA and collected. The radioactivity content of each collected fraction was measured.

The format of series [3] is physicochemical. The procedure:
The octanol–water distribution coefficient was determined as described earlier. Briefly, 500 µL of Milli-Q water and 500 µL of n-octanol were added in an Eppendorf tube containing radiolabeled peptide. The tube was vortexed for 2 min and centrifuged for 20 s. Fractions of each phase were collected and their activity was measured.

The target in series [4] is T1, PSMA (Homo sapiens, UniProt Q04609).
T1 construct: host or cells: PC-3pip (PC-3 cells transfected with PSMA)
T1 sequence (Q04609 whole entry): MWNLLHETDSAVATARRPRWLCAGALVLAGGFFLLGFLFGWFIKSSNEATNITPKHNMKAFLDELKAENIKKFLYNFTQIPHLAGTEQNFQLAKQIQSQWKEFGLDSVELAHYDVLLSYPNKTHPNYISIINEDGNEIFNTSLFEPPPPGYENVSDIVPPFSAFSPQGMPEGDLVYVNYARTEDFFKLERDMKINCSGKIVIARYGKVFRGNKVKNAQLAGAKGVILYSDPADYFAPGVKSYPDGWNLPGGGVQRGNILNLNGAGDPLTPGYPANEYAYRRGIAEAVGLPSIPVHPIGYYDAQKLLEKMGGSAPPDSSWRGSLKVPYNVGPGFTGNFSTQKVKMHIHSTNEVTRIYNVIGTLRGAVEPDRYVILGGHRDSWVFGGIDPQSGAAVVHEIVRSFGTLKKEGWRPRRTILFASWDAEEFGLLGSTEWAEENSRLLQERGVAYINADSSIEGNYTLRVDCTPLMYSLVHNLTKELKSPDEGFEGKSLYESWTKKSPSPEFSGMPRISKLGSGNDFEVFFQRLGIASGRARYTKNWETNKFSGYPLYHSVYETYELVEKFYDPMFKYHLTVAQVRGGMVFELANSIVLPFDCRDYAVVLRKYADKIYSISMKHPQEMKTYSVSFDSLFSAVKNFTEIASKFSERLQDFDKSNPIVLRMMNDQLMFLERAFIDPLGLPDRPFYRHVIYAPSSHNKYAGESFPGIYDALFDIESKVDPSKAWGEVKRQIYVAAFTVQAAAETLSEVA
Nature of the series: Binding inhibition of [^111In]In-PSMA-617 on PC-3pip cells, GRPRs blocked (IC50). As to conditions: competitor 1 nM [^111In]In-PSMA-617, GRPRs blocked with 200 nM RM26, 4 °C, 5 h, non-iodinated heterodimers. The procedure: Cells were incubated at 4 °C for 5 h. After incubation, the cells were detached with trypsin–EDTA and the activity in cell samples was measured. Data were plotted using nonlinear regression.

For series [5], the system named is PC-3pip (GRPR and PSMA positive) xenografts. Also noted: species or system Balb/c nu/nu mice. Conditions: mouse, in vivo. How it is done: (§2) The radioactivity uptake in organs was studied 1, 3, 24, and 72 h pi as described above.
On the set-up of series [6]: species or system Balb/c nu/nu mice. As to conditions: mouse, in vivo. How it is done: as §2
Series [7] has as its system PC-3 cells (GRPR positive). The series can be described thus: Cellular retention of activity after interrupted incubation, PC-3 cells. The series is classed as cell-based. Conditions: 24 h of incubation, normalized to 0 h. How it is done: as §1
The test system of series [8] is LNCaP cells (PSMA positive). Nature of the series: Cellular retention of activity after interrupted incubation, LNCaP cells. The format is cell-based. As to conditions: 24 h. How it is done: as §1
The target of series [9] is T1, PSMA. Also noted: method as in PMID 25883127. Conditions: cited from earlier work.

The term logD denotes the decadic logarithm of the distribution of all forms, ionised or not, between an organic phase and buffer at a given pH. A higher logD goes with higher lipophilicity. For the molecule `CC(C)C[C@H](NC(=O)C[C@H](O)[C@H](CC(C)C)NC(=O)[C@H](Cc1c[nH]cn1)NC(=O)CNC(=O)[C@@H](NC(=O)[C@H](C)NC(=O)[C@H](Cc1c[nH]c2ccccc12)NC(=O)[C@H](CCC(N)=O)NC(=O)[C@@H](Cc1ccccc1)NC(=O)CCOCCOCCNC(=O)[C@H](Cc1ccc(O)c(I)c1)n1cc(CCCCCCCC(=O)NC[C@H]2CC[C@H](C(=O)N[C@@H](Cc3ccc4ccccc4c3)C(=O)NCCCC[C@H](NC(=O)N[C@@H](CCC(=O)O)C(=O)O)C(=O)O)CC2)nn1)C(C)C)C(N)=O` [[^125I]I-BO535], the “difference in tumor activity uptake between non-blocked and blocked groups (in vivo specificity to PSMA)” value with PSMA [1] was “failed to demonstrate in vivo specificity”. In addition, the “decrease of cell-associated activity” value in series [2] is given as 35%. The molecule also showed a logD in series [3] of 1.07.

As a reminder, the IC50 is the concentration at which inhibition is half-maximal. A higher IC50 goes with weaker potency in that assay. `CC(C)C[C@H](NC(=O)C[C@H](O)[C@H](CC(C)C)NC(=O)[C@H](Cc1c[nH]cn1)NC(=O)CNC(=O)[C@@H](NC(=O)[C@H](C)NC(=O)[C@H](Cc1c[nH]c2ccccc12)NC(=O)[C@H](CCC(N)=O)NC(=O)[C@@H](Cc1ccccc1)NC(=O)CCOCCOCCNC(=O)[C@H](Cc1ccc(O)cc1)n1cc(CCCCCCCC(=O)NC[C@H]2CC[C@H](C(=O)N[C@@H](Cc3ccc4ccccc4c3)C(=O)NCCCC[C@H](NC(=O)N[C@@H](CCC(=O)O)C(=O)O)C(=O)O)CC2)nn1)C(C)C)C(N)=O` [BO535] showed an IC50 at PSMA [4] of 100 ± 10 nM.

As a reminder, the tissue uptake is the percentage of the injected dose found per gram of tissue. `CC(C)C[C@H](NC(=O)C[C@H](O)[C@H](CC(C)C)NC(=O)[C@H](Cc1c[nH]cn1)NC(=O)CNC(=O)[C@@H](NC(=O)[C@H](C)NC(=O)[C@H](Cc1c[nH]c2ccccc12)NC(=O)[C@H](CCC(N)=O)NC(=O)[C@@H](Cc1ccccc1)NC(=O)CCOCCOCCNC(=O)[C@H](Cc1ccc(O)c(I)c1)n1cc(COCCOCCC(=O)NC[C@H]2CC[C@H](C(=O)N[C@@H](Cc3ccc4ccccc4c3)C(=O)NCCCC[C@H](NC(=O)N[C@@H](CCC(=O)O)C(=O)O)C(=O)O)CC2)nn1)C(C)C)C(N)=O` [[^125I]I-BO530]: in the series with PSMA [1], the “difference in tumor activity uptake between non-blocked and blocked groups (in vivo specificity to PSMA)” value is given as “demonstrated significant difference”. In series [5], the “area under the curve (AUC), kidneys versus tumors” value was “more than two-fold higher” and the “area under the curve (AUC), tumor versus blood” value was determined as 10 fold. The tissue uptake at 24 h in series [6] was < 1 %ID/g. Besides, the “decrease of cell-associated activity” value in series [2] was determined as 20%. In addition, in series [7], the cell-associated activity is 14% ± 2%. The “cell associated activity from initial” value in series [8] is listed as 60%. Also, in series [3], the logD was -0.52.

With `O=C([O-])CN1CCN(CC(=O)[O-])CCN(CC(=O)NCC2CCC(C(=O)N[C@@H](Cc3ccc4ccccc4c3)C(=O)NCCCC[C@H](NC(=O)N[C@@H](CCC(=O)O)C(=O)O)C(=O)O)CC2)CCN(CC(=O)[O-])CC1.[177Lu+3]` (some centres unmarked) [^177Lu-PSMA-617], the “initial uptake in kidneys versus tumors” value at PSMA [9] is recorded as “at least 10 fold”.

`CC(C)C[C@H](NC(=O)C[C@H](O)[C@H](CC(C)C)NC(=O)[C@H](Cc1c[nH]cn1)NC(=O)CNC(=O)[C@@H](NC(=O)[C@H](C)NC(=O)[C@H](Cc1c[nH]c2ccccc12)NC(=O)[C@H](CCC(N)=O)NC(=O)[C@@H](Cc1ccccc1)NC(=O)CCOCCOCCNC(=O)[C@H](Cc1ccc(O)cc1)n1cc(COCCOCCC(=O)NC[C@H]2CC[C@H](C(=O)N[C@@H](Cc3ccc4ccccc4c3)C(=O)NCCCC[C@H](NC(=O)N[C@@H](CCC(=O)O)C(=O)O)C(=O)O)CC2)nn1)C(C)C)C(N)=O` [BO530]: the IC50 on PSMA [4] was 98 ± 13 nM.
